Experimental data: patent US20220087996A1, “Histone acetylase p300 inhibitor and use thereof” (HINOVA PHARMACEUTICALS INC., priority 2018, published 2022)
Like-named read-outs stand apart in the source and are kept apart here.

System: CWR22RV1 cells
Assay: Compound in combination with CDK4/6 inhibitor palbociclib on proliferation of CWR22RV1 cells
Type: cell-based, human
Conditions: for IC50: Homo sapiens, read-out: IC50 against the activity of CWR22RV1 cells
Method: The IC50 values (nM) of the compound according to the present invention, palbociclib, and the combination of the compound according to the present invention and palbociclib against CWR22RV1 cell proliferation were tested and calculated, and the detailed procedures were as follows:
1) CWR22RV1 cells were subcultured in cell culture medium, and the cells in good growth condition were seeded in a 96-well plate, 60 μL for each well, and the cell number in each well was 2000. The plate was incubated overnight in a 37° C., 5% CO2 cell incubator. 2) The drug was prepared as 10 mM stock solution with dimethyl sulfoxide (DMSO). Prior to use, the stock solution was diluted 3 times with DMSO, and then further diluted as 3-fold gradient to obtain 9 concentration gradients. Then, each concentration of compound was diluted 200 times with the culture solution (ensuring that the DMSO concentration in the culture system was 0.1%), and two replicate wells were set for each concentration. 20 μL of diluted compound solution was added to the cell culture well (with final concentrations of 10 μM, 3.3 μM, 1.1 μM . . . ). Palbociclib was diluted with culture medium to 500 nM, 150 nM, 50 nM, 5 nM, and 20 μL diluted compound solution was added to the corresponding cell culture wells (with a final concentration of 100 nM, 30 nM, 10 nM, 1 nM). The plate was gently shaken to mix. In addition, 3 negative control wells containing only cells and 3 blank control wells containing only culture medium were included (6 wells were each added 20 μL DMSO diluted 200 times with culture medium).
(1) After culturing for 6 days, 10 μL CCK-8 was added to each well, and the plate was continually cultured in a 37° C., 5% CO2 cell incubator for 2.5 h. (2) The absorbance (OD value) was detected at 450 nm using a multifunctional microplate reader. (3) The data were analyzed by Dose-response-inhibition equation in the software GraphPad Prism6, and the IC50 value was obtained.

With `CNC(=O)Nc1ccc2c(c1)CC[C@@]21OC(=O)N(CC(=O)N2C(C)CC[C@H]2c2cc(F)c(F)c(F)c2)C1=O` (stereo in doubt) [Example 205, 1-((R)-3′-(2-((2S,5R)-2-(3,4,5-trifluorophenyl)-5-methylpyrrolidin-1-yl)-2-oxoethyl)-2′,4′-dioxo-2,3-dihydrospiro[indene-1,5′-oxazolidine]-5-yl)-3-methylurea] the IC50 (CWR22Rv1, in combination with 1 nM palbociclib) was 0.13 µM, the IC50 (CWR22Rv1, in combination with 10 nM palbociclib) was 0.11 µM and the IC50 (CWR22Rv1, in combination with 30 nM palbociclib) was 0.04 µM. For the same compound, the IC50 (CWR22Rv1, in combination with 100 nM palbociclib) was less than 0.001 µM, the IC50 (CWR22Rv1, single agent) was 0.12 µM and the “inhibitory activity on CWR22RV1 cells when combined with palbociclib, versus either agent alone” value (combination with CDK4/6 inhibitor palbociclib) was “much higher”.
